Where a name gives a salt, the structure may show the parent alone.
Assays:
α-1d adrenoreceptor = molecular target: T1, α-1d adrenoreceptor (Rattus norvegicus, UniProt P23944); test: biochemical; format: binding; details: [3H]-prazosin radioligand; cloned receptor in LTK cell membranes; read-out: Radioligand Binding (Ki, nM) 1d (Rat)
T1 sequence (P23944 1-561): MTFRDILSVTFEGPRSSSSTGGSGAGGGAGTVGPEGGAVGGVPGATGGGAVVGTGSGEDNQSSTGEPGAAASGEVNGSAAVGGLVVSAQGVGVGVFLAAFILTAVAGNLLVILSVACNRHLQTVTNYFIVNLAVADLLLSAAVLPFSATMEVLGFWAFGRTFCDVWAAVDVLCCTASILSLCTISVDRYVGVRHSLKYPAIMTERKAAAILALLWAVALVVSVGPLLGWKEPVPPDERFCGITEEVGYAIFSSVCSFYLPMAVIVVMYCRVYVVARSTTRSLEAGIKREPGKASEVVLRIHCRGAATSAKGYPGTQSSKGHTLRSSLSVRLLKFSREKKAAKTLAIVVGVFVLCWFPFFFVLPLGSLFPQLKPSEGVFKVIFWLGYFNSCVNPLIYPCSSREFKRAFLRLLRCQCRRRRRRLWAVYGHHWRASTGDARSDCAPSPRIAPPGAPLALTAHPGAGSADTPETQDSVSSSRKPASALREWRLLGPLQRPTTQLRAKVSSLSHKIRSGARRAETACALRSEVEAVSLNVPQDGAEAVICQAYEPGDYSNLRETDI
Procedure, shortened: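 Membranes from LTK mouse fibroblast clones stably transfected with α-1a, α-1b or α-1d cDNA, resuspended in 50 mM Tris-HCl pH 7.4, served for radioligand displacement read by liquid scintillation. Rat submaxillary gland tissue supplied the α-1A receptor.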

α-1B adrenoreceptor = molecular target: T2, α-1B adrenoreceptor (Rattus norvegicus, UniProt P15823); test: cell-based; details: phenylephrine-induced contraction, Schild plot; for Kb: read-out: In Vitro Characterization (pA2) Rat Spleen (converted)
T2 construct: from tissue; host or cells: rat spleen
T2 sequence (P15823 1-515): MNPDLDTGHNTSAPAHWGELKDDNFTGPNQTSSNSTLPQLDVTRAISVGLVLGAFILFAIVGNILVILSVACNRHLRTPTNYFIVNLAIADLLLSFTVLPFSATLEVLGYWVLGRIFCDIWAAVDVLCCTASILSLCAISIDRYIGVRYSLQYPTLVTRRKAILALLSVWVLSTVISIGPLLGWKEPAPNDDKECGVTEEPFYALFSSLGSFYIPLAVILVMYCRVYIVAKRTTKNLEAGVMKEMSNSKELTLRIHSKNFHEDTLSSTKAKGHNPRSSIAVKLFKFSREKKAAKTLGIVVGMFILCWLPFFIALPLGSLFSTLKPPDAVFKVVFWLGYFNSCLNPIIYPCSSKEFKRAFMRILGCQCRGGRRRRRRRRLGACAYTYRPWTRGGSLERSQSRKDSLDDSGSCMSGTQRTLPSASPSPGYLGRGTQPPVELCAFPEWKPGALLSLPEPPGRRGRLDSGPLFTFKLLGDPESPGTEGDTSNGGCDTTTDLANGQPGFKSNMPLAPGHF
Procedure, shortened: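 Phenylephrine dose-response curves for contraction were repeated against increasing test-agent concentrations. pA2 was derived by Schild plot [[…] vs log molarity of test agent].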

## COc1cccc2c1[C@@H]1CN(CCCCn3c(=O)[nH]c4c(sc5cc(Cl)cnc54)c3=O)C[C@@H]1CO2 [Example 38, 3-[4-((3aR,9bR)-cis-9-Methoxy-1,2,3,3a,4,9b-hexahydro-[1]-benzopyrano[3,4-c]pyrrol-2-yl)butyl]-7-chloro-pyrido[2',3':4,5]thieno[3,2-d]pyrimidine-2,4(1H,3H)-dione hydrochloride]
α-1d adrenoreceptor
  Ki: 0.897 nM
α-1B adrenoreceptor
  Kb: 19.5 nM

## COc1cccc2c1[C@@H]1CN(CCCCn3c(=O)[nH]c4c(sc5ncc(-c6ccccc6)nc54)c3=O)C[C@H]1CO2 [Example 50, 3-[4-((3aS,9bR)-trans-9-Methoxy-1,2,3,3a,4,9b-hexahydro-[1]-benzopyrano[3,4-c]pyrrol-2-yl)butyl]-8-phenyl-pyrazino[2',3':4,5]thieno[3,2-d]pyrimidine-2,4(1H,3H)-dione hydrochloride]
α-1d adrenoreceptor
  Ki: 0.391 nM
α-1B adrenoreceptor
  Kb: 316 nM

## COc1cnc2sc3c(=O)n(CCCCN4C[C@@H]5COc6cccc(OC)c6[C@@H]5C4)c(=O)[nH]c3c2n1 [Example 31, 3-[4-((3aR,9bR)-cis-9-Methoxy-1,2,3,3a,4,9b-hexahydro-[1]-benzopyrano[3,4-c]pyrrol-2-yl)butyl]-8-methoxy-pyrazino[2',3':4,5]thieno[3,2-d]pyrimidine-2,4(1H,3H)-dione hydrochloride]
α-1d adrenoreceptor
  Ki: 0.344 nM
α-1B adrenoreceptor
  Kb: 14.1 nM

## COc1ccc2sc3c(=O)n(CCCCN4C[C@@H]5COc6cccc(OC)c6[C@@H]5C4)c(=O)[nH]c3c2n1 [Example 30, 3-[4-((3aR,9bR)-cis-9-Methoxy-1,2,3,3a,4,9b-hexahydro-[1]-benzopyrano[3,4-c]pyrrol-2-yl)butyl]-8-methoxy-pyrido[2',3':4,5]thieno[3,2-d]pyrimidine-2,4(1H,3H)-dione hydrochloride]
α-1d adrenoreceptor
  Ki: 0.222 nM
α-1B adrenoreceptor
  Kb: 21.4 nM

## COc1cc2[nH]c(=O)n(CCCCN3C[C@@H]4COc5ccccc5[C@@H]4C3)c(=O)c2cc1OC (racemic) [Example 81, 3-[4-((±1-cis-1,2,3,3a,4,9b-hexahydro-[1]-benzopyrano[3,4-c]pyrrol-2-yl)butyl]-6,7-dimethoxy-quinazoline-2,4(1H,3H)-dione hydrochloride]
α-1d adrenoreceptor
  Ki: 0.108 nM
α-1B adrenoreceptor
  Kb: 38.9 nM

## 3-[4-((3aR,9bR)-cis-9-Methoxy-1,2,3,3a,4,9b-hexahydro-[1]-benzopyrano[3,4-c]pyrrol-2-yl]butyl]-7-methoxy-pyrido[3',2':4,5]thieno[3,2-d]pyrimidine-2,4(1H,3H)-dione hydrochloride [Example 33]
α-1d adrenoreceptor
  Ki: 0.701 nM
α-1B adrenoreceptor
  In Vitro Characterization (pA2) Rat Spleen: 7.83

## COc1ccc2c(n1)sc1c(=O)n(CCCCN3C[C@H]4COc5cccc(OC)c5[C@@H]4C3)c(=O)[nH]c12 [Example 46, 3-[4-((3aS,9bR)-trans-9-Methoxy-1,2,3,3a,4,9b-hexahydro-[1]-benzopyrano[3,4-c]pyrrol-2-yl)butyl]-7-methoxy-pyrido[3',2':4,5]thieno[3,2-d]pyrimidine-2,4(1H,3H)-dione hydrochloride]
α-1d adrenoreceptor
  Ki: 0.114 nM
α-1B adrenoreceptor
  Kb: 7.59 nM

## COc1cccc2c1[C@@H]1CN(CCCCn3c(=O)[nH]c4c(sc5ccc(Cl)nc54)c3=O)C[C@H]1CO2 [Example 25, 3-[4-((3aS,9bR)-trans-9-Methoxy-1,2,3,3a,4,9b-hexahydro-[1]-benzopyrano[3,4-c]pyrrol-2-yl)butyl]-8-chloro-pyrido[2',3':4,5]thieno[3,2-d]pyrimidine-2,4(1H,3H)-dione dihydrochloride]
α-1d adrenoreceptor
  Ki: 0.039 nM
α-1B adrenoreceptor
  Kb: 2 nM

## COc1cccc2c1[C@@H]1CN(CCCCn3c(=O)[nH]c4c(sc5c(Cl)nccc54)c3=O)C[C@@H]1CO2 [Example 53, 3-[4-((3aR,9bR)-cis-9-Methoxy-1,2,3,3a,4,9b-hexahydro-[1]-benzopyrano[3,4-c]pyrrol-2-yl)butyl]-6-chloro-pyrido[4',3':4,5]thieno[3,2-d]pyrimidine-2,4(1H,3H)-dione]
α-1d adrenoreceptor
  Ki: 0.664 nM
α-1B adrenoreceptor
  Kb: 63.1 nM

## COc1cccc2c1[C@@H]1CN(CCCCn3c(=O)[nH]c4c(sc5ncc(Cl)nc54)c3=O)C[C@H]1CO2 [Example 13, 3-[4-((3aS,9bR)-trans-9-Methoxy-1,2,3,3a,4,9b-hexahydro-[1]-benzopyrano[3,4-c]pyrrol-2-yl)butyl]-8-chloro-pyrazino[2',3':4,5]thieno[3,2-d]pyrimidine-2,4(1H,3H)-dione hydrochloride]
α-1d adrenoreceptor
  Ki: 0.112 nM
α-1B adrenoreceptor
  Kb: 4.07 nM

## COc1cccc2c1[C@@H]1CN(CCCCn3c(=O)[nH]c4c(sc5cnccc54)c3=O)C[C@H]1CO2 [Example 42, 3-[4-((3aS,9bR)-trans-9-Methoxy-1,2,3,3a,4,9b-hexahydro-[1]-benzopyrano[3,4-c]pyrrol-2-yl)butyl]-pyrido[4',3':4,5]thieno[3,2-d]pyrimidine-2,4(1H,3H)-dione dihydrochloride]
α-1d adrenoreceptor
  Ki: 0.066 nM
α-1B adrenoreceptor
  Kb: 2.75 nM

## COc1cccc2c1[C@@H]1CN(CCCCn3c(=O)[nH]c4c(sc5ncccc54)c3=O)C[C@@H]1CO2 [Example 34, 3-[4-((3aR,9bR)-cis-9-Methoxy-1,2,3,3a,4,9b-hexahydro-[1]-benzopyrano[3,4-c]pyrrol-2-yl)butyl]-pyrido[3',2':4,5]thieno[3,2-d]pyrimidine-2,4(1H,3H)-dione hydrochloride]
α-1d adrenoreceptor
  Ki: 0.339 nM
α-1B adrenoreceptor
  Kb: 7.59 nM

## COc1cccc2c1[C@@H]1CN(CCCCn3c(=O)[nH]c4c(sc5ccnc(OC)c54)c3=O)C[C@H]1CO2 [Example 49, 3-[4-((3aS,9bR)-trans-9-Methoxy-1,2,3,3a,4,9b-hexahydro-[1]-benzopyrano[3,4-c]pyrrol-2-yl)butyl]-9-methoxy-pyrido[3',4':4,5]thieno[3,2-d]pyrimidine-2,4(1H,3H)-dione fumarate]
α-1d adrenoreceptor
  Ki: 0.019 nM
α-1B adrenoreceptor
  Kb: 7.24 nM

## COc1cccc2c1[C@@H]1CN(CCCCn3c(=O)[nH]c4c(sc5ccc(OC(C)C)nc54)c3=O)C[C@H]1CO2 [Example 51, 3-[4-((3aS,9bR)-trans-9-Methoxy-1,2,3,3a,4,9b-hexahydro-[1]-benzopyrano[3,4-c]pyrrol-2-yl)butyl]-8-isopropoxy-pyrido[2',3':4,5]thieno[3,2-d]pyrimidine-2,4(1H,3H)-dione hydrochloride]
α-1d adrenoreceptor
  Ki: 0.371 nM
α-1B adrenoreceptor
  Kb: 33.9 nM

## COc1cccc2c1[C@@H]1CN(CCCCn3c(=O)[nH]c4c(sc5ccnc(Cl)c54)c3=O)C[C@@H]1CO2 [Example 48, 3-[4-((3aR,9bR)-cis-9-Methoxy-1,2,3,3a,4,9b-hexahydro-[1]-benzopyrano[3,4-c]pyrrol-2-yl)butyl]-9-chloro-pyrido[3',4';4,5]thieno[3,2-d]pyrimidine-2,4(1H,3H)-dione hydrochloride]
α-1d adrenoreceptor
  Ki: 0.467 nM
α-1B adrenoreceptor
  Kb: 39.8 nM

## COc1cccc2c1[C@@H]1CN(CCCCn3c(=O)[nH]c4c(sc5ccc(Cl)nc54)c3=O)C[C@@H]1CO2 [Example 37, 3-[4-((3aR,9bR)-cis-9-Methoxy-1,2,3,3a,4,9b-hexahydro-[1]-benzopyrano[3,4-c]pyrrol-2-yl)butyl]-8-chloro-pyrido[2',3':4,5]thieno[3,2-d]pyrimidine-2,4(1H,3H)-dione hydrochloride]
α-1d adrenoreceptor
  Ki: 0.195 nM
α-1B adrenoreceptor
  Kb: 9.33 nM

## COc1cccc2c1[C@@H]1CN(CCCCn3c(=O)[nH]c4c(sc5nc(-c6ccccc6)cnc54)c3=O)C[C@@H]1CO2 [Example 40, 3-[4-((3aR,9bR)-cis-9-Methoxy-1,2,3,3a,4,9b-hexahydro-[1]-benzopyrano[3,4-c]pyrrol-2-yl)butyl]-7-phenyl-pyrazino[2',3':4,5]thieno[3,2-d]pyrimidine-2,4(1H,3H)-dione hydrochloride]
α-1d adrenoreceptor
  Ki: 7.12 nM
α-1B adrenoreceptor
  Kb: 759 nM

## COc1cccc2c1[C@@H]1CN(CCCCn3c(=O)[nH]c4c(sc5cnccc54)c3=O)C[C@@H]1CO2 [Example 29, 3-[4-((3aR,9bR)-cis-9-Methoxy-1,2,3,3a,4,9b-hexahydro-[1]-benzopyrano[3,4-c]pyrrol-2-yl)butyl]-pyrido[4',3':4,5]thieno[3,2-d]pyrimidine-2,4(1H,3H)-dione dihydrochloride]
α-1d adrenoreceptor
  Ki: 0.466 nM
α-1B adrenoreceptor
  Kb: 12.3 nM

Reference: patent EP0942911B1, “BENZOPYRANOPYRROLE AND BENZOPYRANOPYRIDINE ALPHA-1 ADRENERGIC COMPOUNDS” (Abbott Laboratories, priority 1996, dated 1998)
